Results from a melting point compilation (Tetko et al.; mined from patent text by program, amines drawn as free bases though some values may be those of a salt).

SMILES | melting point
CCN(CC)CCCNc1ncc2cc(-c3c(Cl)cccc3Cl)c(NC(=O)NC(C)C)nc2n1 | 88 to 100 °C
O=c1ccc(-c2ccc(CCCO)cc2)cn1Cc1ccc(Cl)cc1 | 165 °C
O=c1ccc2c(F)cc(F)cc2[nH]1 | 292 to 318 °C
CCOC(=N)c1cccc(C)c1OC | 93 to 96 °C
CCCNC(=O)n1c(=O)cc2n1C(c1cccc([N+](=O)[O-])c1)C(C(=O)OC(C)C)=C(C)N2 (stereo not given) | 160 to 163 °C
CCOC(=O)c1oc2ccc(Cl)cc2c1CN(C)CC(OC)OC | 58 to 60 °C
O=C(O)c1cc2cc(C(=O)c3cccs3)c(Cl)c(Cl)c2o1 | 243 to 245 °C
CC(C)Nc1ccc([N+](=O)[O-])cc1C(=O)c1ccccc1 | 155 °C
CC(=O)C(Cl)=NNc1ccccc1S(C)(=O)=O | 253 to 255 °C
COc1ccc([C@H]2Cc3c(cccc3C(F)(F)F)NC(=O)[C@H]2O)cc1 (relative stereo) | 205 to 208 °C
CCOC(=O)C(NC(=O)CNC(=O)CC)C(=O)OCC | 120 to 122 °C
CC1(C(=O)O)CCCc2cc(C3CCCCC3)ccc21 (stereo not given) | 128 to 129 °C
CC(C)(C)C(F)(F)c1ccc(C[C@H](N)[C@H](O)c2cccc(Cl)c2)cc1 (racemic) | 105 to 107 °C
O=C(Nc1ccc2cc(CN3CCCC3)ccc2c1)N1CCC(c2ccccc2)CC1 | 193 to 195 °C
CON=Cc1ccc2c(c1)ncn2-c1cccc(-c2cccs2)c1 | 184 to 185 °C
COc1cc(CNC(c2ccccc2)c2ccccc2)ccc1O | 115 to 118 °C
NNc1c([N+](=O)[O-])cnn1-c1c(Cl)cc(C(F)(F)F)cc1Cl | 133 to 135 °C
CC1=C(c2ccc(C(=O)N3Cc4cccn4Cc4ccccc43)cc2)CCCC1=O | 95 to 97 °C
CCOC(=O)/C=C/c1nc(COc2ccc(COc3nn(-c4ccccc4)cc3C=O)cc2OC)c(C)o1 | 150 to 151 °C
CCCCCn1c(C)c(C(=O)c2ccc(Br)c3ccccc23)c2cccc(OC)c21 | 114 °C

SMILES | melting point
COc1cc2onc(N)c2cc1Br | 226 to 227 °C
Nc1c(-c2cc(Cl)ccc2O)nnn1-c1ccc(C(F)(F)F)cc1Cl | 74.5 to 77.5 °C
CCn1cc(Cc2ccc(C(=O)OC)cc2OC)c2cc(NC(=O)CC3CCCC3)ccc21 | 144 to 146 °C
O=C(NC(=O)N1CCC(Cc2ccccc2)CC1)c1ccc2[nH]ccc2c1 | 110 to 112 °C
CCOC(=O)c1nc(-c2ccc([N+](=O)[O-])cc2)[nH]c1-c1ccc(OCC)cc1 | 214 to 217 °C
CCOC(=O)c1ccccc1-c1ccc(Nc2cc(CC)nc3ccnn23)cc1 | 223 to 225 °C
CN1CCNC(=O)C1c1ccc(N)cc1 (stereo not given) | 153 to 154 °C
Cc1cc(C#N)c(=O)[nH]c1C | 258 to 263 °C
O=C(Nc1ccnc(Br)c1)C1(O)CCCCC1 | 179 °C
O=c1c(-c2ccccc2)c(CNc2ncnc3[nH]cnc23)oc2ccccc12 | 155 to 158 °C
COc1ccc2c(c1)CC(=O)NC2c1ccccc1Cl (stereo not given) | 203 to 205 °C
COC(=O)C(Cl)=Cc1ccc(OC)cc1 | 68 to 70 °C
CN1C(c2ccc(C#N)cc2)=NC(C(F)(F)F)(C(F)(F)F)C1NC(=O)c1ccc(CF)cc1 (stereo not given) | 189 to 190 °C
Cn1cccc1C1=CC(=O)c2nccnc2C1=O | 161 to 162 °C
O=C(O)Cc1ccc(CCNS(=O)(=O)c2ccc3ccccc3c2)cc1 | 135 to 136 °C
Nc1ccc2cccc(Oc3cc(-c4ccc(C(F)(F)F)cc4)ccn3)c2n1 | 196 to 200 °C
ClCCN1c2cc3c(cc2C(c2cccs2)=NCC1CCl)OCCO3 (stereo not given) | 184 to 187 °C
COc1ccc(C[C@]2(C)C(=O)O[C@@H](c3ccccc3)N2C(=O)c2ccccc2)cc1 | 128 to 129 °C
COc1ccc(C2CCc3ccccc3C2O)cc1 (stereo not given) | 89 to 90.5 °C
c1cn(CCCOc2ccc(-c3noc(C4CC4)n3)cc2)cn1 | 98 to 100 °C
